The source of these data is patent US9242977B2, “Trk-inhibiting compound” (ONO PHARMACEUTICAL CO., LTD., priority 2012, dated 2016).

The target of one experiment is Abl (Homo sapiens (Human), UniProt P00519). As to the kind of experiment: Enzyme inhibition activity test for kinases other than Trk (selectivity test): Abl. The format is biochemical. As to conditions: test concentration 3 μM; read-out: Inhibition Rate (%) Abl. The procedure: (§1) A test substance (present compound or comparative compound) was dissolved in dimethylsulfoxide and further diluted with dimethylsulfoxide to prepare a solution having a concentration of 100 times the test concentration of 3 μM. The solution was further diluted to 25-fold with an assay buffer (20 mM HEPES, 0.01% Triton X-100, 2 mM DTT, pH 7.5) to obtain a test substance solution. In a similar manner a positive control substance solution was prepared with a positive control substance.
(§2) A 4-times concentration solution (5 μL) of the test substance prepared with the assay buffer, 5 μL of a 4-times concentration solution of substrate/ATP/metal (Mg) and 10 μL of a 2-times concentration solution of kinase were mixed in a well of a polypropylene 384-well plate and allowed to react at room temperature for 1 hour. The reaction was terminated by adding 60 μL of a Termination Buffer (QuickScout Screening Assist MSA; Carna Biosciences). The substrate peptide and the phosphorylated peptide in the reaction solution were separated and quantified. The kinase reaction was assessed from the product ratio (P/(P+S)) calculated from the height (S) of the peak of the substrate peptide and the height (P) of the peak of the phosphorylated peptide. Other kinases used in the kinase selectivity experiments were, for example, Abl, c-Met, b-Raf, c-Kit and KDR. The following Table 2 indicates substrates, substrate concentrations, ATP concentrations and positive control substances used in respective kinase enzyme inhibition activity tests.
(§3) The inhibition rate was calculated from the average signal intensity of the test wells containing respective test substances provided that the average signal intensity of control wells each containing all reaction components was 0% inhibition and the average signal intensity of background wells (without addition of the enzyme) was 100% inhibition.

The target in a further experiment is b-Raf (Homo sapiens (Human), UniProt P15056). As to the kind of experiment: Enzyme inhibition activity test for kinases other than Trk (selectivity test): b-Raf. It counts as biochemical. As to conditions: test concentration 3 μM; read-out: Inhibition Rate (%) b-Raf. The method, then:
as §1, §2, §3

The target in a further experiment is c-Kit (Homo sapiens (Human), UniProt P10721). As to the kind of experiment: Enzyme inhibition activity test for kinases other than Trk (selectivity test): c-Kit. It counts as biochemical. The conditions noted are these: test concentration 3 μM; read-out: Inhibition Rate (%) c-Kit. The method, then: as §1, §2, §3
c-Kit, sequence (P10721 26-976): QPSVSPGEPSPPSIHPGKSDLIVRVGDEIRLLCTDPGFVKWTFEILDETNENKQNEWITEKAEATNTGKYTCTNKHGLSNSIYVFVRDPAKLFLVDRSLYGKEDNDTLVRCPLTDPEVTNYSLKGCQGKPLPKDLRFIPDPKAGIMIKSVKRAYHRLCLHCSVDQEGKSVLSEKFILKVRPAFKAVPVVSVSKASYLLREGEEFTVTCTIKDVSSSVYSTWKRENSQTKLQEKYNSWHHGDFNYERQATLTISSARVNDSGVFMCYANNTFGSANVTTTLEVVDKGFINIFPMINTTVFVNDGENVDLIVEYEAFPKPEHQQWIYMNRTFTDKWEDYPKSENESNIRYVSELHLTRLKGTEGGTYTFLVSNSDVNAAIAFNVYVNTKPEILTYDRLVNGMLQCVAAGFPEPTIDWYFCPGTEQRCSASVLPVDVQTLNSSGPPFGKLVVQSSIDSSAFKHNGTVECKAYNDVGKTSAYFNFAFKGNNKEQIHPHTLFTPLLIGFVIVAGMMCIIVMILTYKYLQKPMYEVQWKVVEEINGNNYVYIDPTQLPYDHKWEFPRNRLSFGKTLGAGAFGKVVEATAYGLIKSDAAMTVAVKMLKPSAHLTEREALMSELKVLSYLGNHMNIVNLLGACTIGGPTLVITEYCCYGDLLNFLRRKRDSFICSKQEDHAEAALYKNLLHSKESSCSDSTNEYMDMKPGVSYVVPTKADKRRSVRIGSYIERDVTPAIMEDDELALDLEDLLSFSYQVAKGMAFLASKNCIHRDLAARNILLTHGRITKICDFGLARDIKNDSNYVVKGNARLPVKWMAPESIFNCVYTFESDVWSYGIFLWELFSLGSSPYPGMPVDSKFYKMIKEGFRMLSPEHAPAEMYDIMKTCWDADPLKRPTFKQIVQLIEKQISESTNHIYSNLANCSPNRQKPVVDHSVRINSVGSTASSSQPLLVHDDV
The next experiment addresses c-Met (Homo sapiens (Human), UniProt P08581). As to the kind of experiment: Enzyme inhibition activity test for kinases other than Trk (selectivity test): c-Met. It counts as biochemical. The conditions noted are these: test concentration 3 μM; read-out: Inhibition Rate (%) c-Met. The procedure: as §1, §2, §3
The target in another experiment is TrkA (Homo sapiens (Human), UniProt P04629). Kind of experiment: TrkA kinase-inhibiting activity using human TrkA expressing cells (CellSenser TrkA-NFAT-bla CHO-K1, NGF-stimulated reporter assay). As to conditions: CHO-K1 cells expressing human TrkA and NFAT-bla; NGF 50 ng/ml; read-out: TrkA inhibitory activity (IC50; μM). It counts as cell-based. The method, then: TrkA kinase-inhibiting activity in cell systems was measured using CHO-K1 cells expressing human TrkA and NFAT-bla (CellSenser™ TrkA-NFAT-bla CHO-K1 cells, Invitrogen).
On the day before the assay, CellSenser™ TrkA-NFAT-bla CHO-K1 cells were suspended in an assay medium (Opti-MEM1 Reduced Serum Medium (Invitrogen) containing 0.5% dialysed fetal bovine serum (Invitrogen), 0.1 mM nonessential amino acids (Invitrogen), 1 mM sodium pyruvate (Invitrogen) and antibiotics (100 U/mL penicillin and 100 μg/mL streptomycin (Invitrogen)) and plated at a density of 2.4×10^4 cells/40 μL/well in a 96-well clear bottom plate (Corning, Catalogue No.: 3882). In some wells were added only the assay medium at 40 μL/well (Cell-free). On the day of the assay, 10 mM of the present compound (DMSO solution) was distributed in a 96-well plate (Costar, Catalogue No.: 3363) and serially diluted with DMSO with the geometrical ratio of 3. The serial dilutions were diluted with the assay medium to 100-fold to prepare a solution of the present compound with a 10-times concentration (DMSO concentration: 1%). To the plate where cells were plated was added the present compound at 5 μL/well and the plate was incubated in a CO2 incubator with 5% CO2, 95% Air at 37° C. for 30 minutes. For a control and a blank, the assay medium containing 1% DMSO was added at 5 μL/well in place of the solution of the present compound. Subsequently the assay medium containing NGF (Mouse 2.5s, Natural, Invitrogen) was added to the plate at 5 µL/well (final concentration of NGF: 50 ng/ml) and the plate was incubated in a CO2 incubator with 5% CO2, 95% Air at 37° C. for 5 hours. For a group of blanks, the assay medium was added in place of NGF at 5 μL/well. A reporter assay detection reagent (10 μL/well) was added to the plate and the plate was then incubated in the dark at room temperature for 120 minutes. The reporter assay detection reagent was prepared from LiveBLAzer™-FRET B/G Loading Kit (Invitrogen). On an Analyst GT (Molecular Devices Japan, K.K.) the wells were irradiated with excitation light at 405 nm and the fluorescence intensities at 460 nm and 530 nm were measured. The time resolved fluorescence resonance energy transfer (TR-FRET) ratio of each well was calculated according to the following Equation 2. TR-FRET Ratio=(A460X−A460F)/(A530X−A530F) Equation 2
wherein A460X: the fluorescence intensity at 460 nm of the present compound, control or blank;
A460F: the fluorescence intensity at 460 nm of the Cell-free;
A530X: the fluorescence intensity at 530 nm of the present compound, control or blank; and
A530F: the fluorescence intensity at 530 nm of the Cell-free. […]
The IC50 value of the present compound was calculated from the inhibition curve based on the inhibition rate of the present compound at respective concentrations.
For orientation: In a reporter assay the amount or activity of a reporter protein is the signal.

The next experiment has as its target KDR (Homo sapiens (Human), UniProt P35968). As to the kind of experiment: Enzyme inhibition activity test for kinases other than Trk (selectivity test): KDR. As to conditions: test concentration 3 μM; read-out: Inhibition Rate (%) KDR. The format is biochemical. The method, then: as §1, §2, §3

b-Raf, sequence (P15056 whole entry): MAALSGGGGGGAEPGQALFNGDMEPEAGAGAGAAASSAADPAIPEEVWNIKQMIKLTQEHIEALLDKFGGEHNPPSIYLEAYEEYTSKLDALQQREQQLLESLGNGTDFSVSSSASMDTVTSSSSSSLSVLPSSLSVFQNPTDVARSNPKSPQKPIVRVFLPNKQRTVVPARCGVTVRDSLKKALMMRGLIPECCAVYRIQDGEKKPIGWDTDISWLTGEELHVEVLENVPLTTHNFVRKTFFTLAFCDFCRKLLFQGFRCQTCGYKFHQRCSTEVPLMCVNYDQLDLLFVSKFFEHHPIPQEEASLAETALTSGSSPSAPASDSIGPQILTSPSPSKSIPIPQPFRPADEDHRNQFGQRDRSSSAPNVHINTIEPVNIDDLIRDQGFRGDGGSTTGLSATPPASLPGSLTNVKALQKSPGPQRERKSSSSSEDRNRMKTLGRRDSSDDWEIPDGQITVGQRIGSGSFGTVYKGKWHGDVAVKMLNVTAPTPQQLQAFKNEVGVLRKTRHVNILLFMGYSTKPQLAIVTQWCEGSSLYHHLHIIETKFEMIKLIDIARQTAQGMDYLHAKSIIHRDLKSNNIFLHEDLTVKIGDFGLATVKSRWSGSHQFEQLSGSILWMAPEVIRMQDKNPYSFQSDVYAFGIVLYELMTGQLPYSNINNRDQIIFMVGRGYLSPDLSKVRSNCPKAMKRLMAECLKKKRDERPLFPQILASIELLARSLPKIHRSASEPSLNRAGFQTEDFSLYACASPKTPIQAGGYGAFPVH
KDR, sequence (P35968 20-1356): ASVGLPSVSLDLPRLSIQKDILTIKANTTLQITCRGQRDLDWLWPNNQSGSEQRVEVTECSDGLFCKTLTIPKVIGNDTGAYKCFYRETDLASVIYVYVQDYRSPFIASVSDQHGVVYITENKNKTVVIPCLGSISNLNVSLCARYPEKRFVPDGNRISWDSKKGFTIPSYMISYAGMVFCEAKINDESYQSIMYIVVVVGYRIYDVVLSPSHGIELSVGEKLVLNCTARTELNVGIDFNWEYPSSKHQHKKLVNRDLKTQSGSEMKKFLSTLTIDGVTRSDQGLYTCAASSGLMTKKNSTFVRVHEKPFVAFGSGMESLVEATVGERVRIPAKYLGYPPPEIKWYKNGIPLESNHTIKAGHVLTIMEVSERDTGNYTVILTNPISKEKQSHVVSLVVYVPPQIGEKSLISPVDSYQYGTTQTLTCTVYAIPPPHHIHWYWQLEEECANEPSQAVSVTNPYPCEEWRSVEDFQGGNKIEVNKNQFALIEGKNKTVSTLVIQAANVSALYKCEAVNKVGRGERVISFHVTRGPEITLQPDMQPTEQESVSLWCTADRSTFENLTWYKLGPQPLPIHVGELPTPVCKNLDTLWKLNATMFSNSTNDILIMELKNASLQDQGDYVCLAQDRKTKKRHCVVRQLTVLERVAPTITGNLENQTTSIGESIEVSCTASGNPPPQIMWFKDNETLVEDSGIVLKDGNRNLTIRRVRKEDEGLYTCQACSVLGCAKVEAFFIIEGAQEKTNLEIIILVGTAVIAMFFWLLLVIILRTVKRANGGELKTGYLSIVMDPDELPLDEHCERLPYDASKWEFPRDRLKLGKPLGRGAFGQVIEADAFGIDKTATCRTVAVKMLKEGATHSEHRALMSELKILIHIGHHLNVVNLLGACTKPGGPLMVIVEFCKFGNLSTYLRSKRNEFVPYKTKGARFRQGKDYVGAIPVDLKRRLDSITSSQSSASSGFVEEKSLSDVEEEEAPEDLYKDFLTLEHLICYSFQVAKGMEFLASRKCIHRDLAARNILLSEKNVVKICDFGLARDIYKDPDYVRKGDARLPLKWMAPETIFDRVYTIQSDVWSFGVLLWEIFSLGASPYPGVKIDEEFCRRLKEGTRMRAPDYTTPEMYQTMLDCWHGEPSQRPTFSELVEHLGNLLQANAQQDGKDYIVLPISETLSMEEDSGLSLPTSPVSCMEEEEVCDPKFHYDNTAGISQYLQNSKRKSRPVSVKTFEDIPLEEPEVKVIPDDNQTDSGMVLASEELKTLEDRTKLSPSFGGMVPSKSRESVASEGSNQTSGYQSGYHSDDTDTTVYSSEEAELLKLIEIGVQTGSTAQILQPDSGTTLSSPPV
c-Met, sequence (P08581 25-1390): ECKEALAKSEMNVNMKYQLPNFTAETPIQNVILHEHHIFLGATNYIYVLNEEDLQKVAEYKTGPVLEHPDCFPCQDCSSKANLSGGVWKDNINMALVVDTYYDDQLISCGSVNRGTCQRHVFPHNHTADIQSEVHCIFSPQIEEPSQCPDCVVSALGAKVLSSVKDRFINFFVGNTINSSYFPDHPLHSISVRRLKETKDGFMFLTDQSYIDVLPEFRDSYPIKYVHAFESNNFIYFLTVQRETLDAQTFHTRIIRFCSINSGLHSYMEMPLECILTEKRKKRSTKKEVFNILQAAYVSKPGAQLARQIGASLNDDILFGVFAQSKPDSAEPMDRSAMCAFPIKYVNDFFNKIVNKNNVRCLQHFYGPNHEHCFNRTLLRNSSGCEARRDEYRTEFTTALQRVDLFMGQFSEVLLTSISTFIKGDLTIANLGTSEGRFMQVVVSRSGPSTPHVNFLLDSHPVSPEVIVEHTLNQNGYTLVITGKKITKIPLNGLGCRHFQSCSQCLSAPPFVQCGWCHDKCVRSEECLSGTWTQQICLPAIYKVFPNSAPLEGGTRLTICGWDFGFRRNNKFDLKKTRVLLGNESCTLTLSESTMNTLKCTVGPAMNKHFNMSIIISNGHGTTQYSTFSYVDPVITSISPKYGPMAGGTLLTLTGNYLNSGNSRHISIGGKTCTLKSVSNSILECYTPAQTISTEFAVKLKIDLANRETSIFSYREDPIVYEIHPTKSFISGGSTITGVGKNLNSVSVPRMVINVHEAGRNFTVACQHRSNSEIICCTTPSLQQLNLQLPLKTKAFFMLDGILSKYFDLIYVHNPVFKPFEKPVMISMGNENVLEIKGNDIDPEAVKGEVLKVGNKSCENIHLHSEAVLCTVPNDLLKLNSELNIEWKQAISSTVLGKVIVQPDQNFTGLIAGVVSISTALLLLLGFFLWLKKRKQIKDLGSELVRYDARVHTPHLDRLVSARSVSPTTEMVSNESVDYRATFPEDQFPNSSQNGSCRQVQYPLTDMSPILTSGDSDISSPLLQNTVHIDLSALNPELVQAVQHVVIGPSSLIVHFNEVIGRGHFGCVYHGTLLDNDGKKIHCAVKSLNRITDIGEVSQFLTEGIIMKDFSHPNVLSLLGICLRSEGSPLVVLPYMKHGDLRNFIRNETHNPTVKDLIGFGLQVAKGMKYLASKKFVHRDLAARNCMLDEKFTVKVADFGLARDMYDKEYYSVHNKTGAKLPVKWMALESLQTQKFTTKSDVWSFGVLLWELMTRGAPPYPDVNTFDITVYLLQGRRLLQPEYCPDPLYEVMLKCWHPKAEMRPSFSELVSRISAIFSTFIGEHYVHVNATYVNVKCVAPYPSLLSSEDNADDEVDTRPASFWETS

`Cc1cccc(-c2ncc(C(F)(F)F)cc2NC(=O)Nc2cnc(Oc3ccc(-c4cnc(N5CCCC5=O)s4)cc3)nc2)c1` [Example 57, 1-[2-(3-methylphenyl)-5-(trifluoromethyl)-3-pyridinyl]-3-(2-{4-[2-(2-oxo-1-pyrrolidinyl)-1,3-thiazol-5-yl]phenoxy}-5-pyrimidinyl)urea]: the inhibition (in general, how much of the control response was suppressed) at 3 µM on Abl was determined as 0%; at b-Raf, 18%; at c-Kit it was 9.1%; at c-Met, 4.9%; on KDR it was 0%. Moreover, on TrkA, the IC50 – broadly, the concentration needed to halve the response being measured – is 0.003 µM.
With `CCNc1ncc(-c2ccc(Oc3ncc(NC(=O)Nc4cc(C(F)(F)F)cnc4Oc4ccccc4)cn3)cc2)s1` [Example 48, 1-(2-{4-[2-(ethylamino)-1,3-thiazol-5-yl]phenoxy}-5-pyrimidinyl)-3-[2-phenoxy-5-(trifluoromethyl)-3-pyridinyl]urea], at TrkA, the IC50 came to 0.01 µM.
Same read-out and setting: the value for `CCNc1ncc(-c2ccc(Oc3ccc(NC(=O)Nc4cc(C(F)(F)F)cnc4-c4ccc(C)c(C)c4)cn3)cc2)s1` [Example 34, 1-[2-(3,4-dimethylphenyl)-5-(trifluoromethyl)-3-pyridinyl]-3-(6-{4-[2-(ethylamino)-1,3-thiazol-5-yl]phenoxy}-3-pyridinyl)urea] was 0.006 µM.
For `O=C(Nc1cnc(Oc2ccc(-c3cnc(N4CCCC4=O)s3)cc2)nc1)Nc1cc(C(F)(F)F)cnc1-c1ccccc1` [Example 54, 1-(2-{4-[2-(2-oxo-1-pyrrolidinyl)-1,3-thiazol-5-yl]phenoxy}-5-pyrimidinyl)-3-[2-phenyl-5-(trifluoromethyl)-3-pyridinyl]urea], the inhibition at 3 µM on Abl was determined as 8.9%; on b-Raf, 17%; on c-Kit, 7.2%; at c-Met, 0%; on KDR, 2.4%. For the same compound, the IC50 at TrkA was found to be 0.004 µM.
As to `CCCNc1ncc(-c2ccc(Oc3ncc(NC(=O)Nc4cc(C(F)(F)F)ccc4Cl)cn3)cc2)s1` [Example 85-117, 1-[2-chloro-5-(trifluoromethyl)phenyl]-3-(2-{4-[2-(propylamino)-1,3-thiazol-5-yl]phenoxy}-5-pyrimidinyl)urea], the inhibition at 3 µM at Abl stood at 0%; on b-Raf it was 13%; at c-Kit it was 19%; on c-Met, 0%; on KDR it was 0%. Moreover, the half-maximal inhibitory concentration (IC50) at TrkA worked out at 0.002 µM.
In the case of `CCNc1ncc(-c2ccc(Oc3ncc(NC(=O)Nc4cc(C(F)(F)F)cnc4-c4ccc(C)cc4)cn3)cc2)s1` [Example 23, 1-(2-{4-[2-(ethylamino)-1,3-thiazol-5-yl]phenoxy}-5-pyrimidinyl)-3-[2-(4-methylphenyl)-5-(trifluoromethyl)-3-pyridinyl]urea], the inhibition at 3 µM on Abl worked out at 25%; on b-Raf it was 23%; on c-Kit it was 31%; at c-Met, 6.5%; on KDR, 15%. Moreover, the IC50 on TrkA is 0.004 µM.
